Data on 31 compounds can be found in US7148245B2, “Biphenyl derivatives substituted with an aromatic or heteroaromatic radical, and pharmaceutical and cosmetic compositions containing them” (Galderma Research & Development, priority 1997, dated 2006).

Molecules are shown by their SMILES.

For `CCOC(=O)CCCCCOc1ccc(-c2ccc(C(=O)O)cc2)cc1-c1ccc2c(c1)C(C)(C)CCC2(C)C` [Example 55, 4′-(5-Ethoxycarbonylpentyloxy)-3′-(5,5,8,8-tetramethyl-5,6,7,8-tetrahydro-2-naphthyl)biphenyl-4-carboxylic acid], the melting point (as a rule, the temperature, or range, at which the solid turns liquid) was determined as 177 °C.

As for `CC1(C)CCC(C)(C)c2cc(-c3cc(-c4ccc(C(=O)O)cc4)ccc3OCCCCCCCO)ccc21` [Example 4, 4-[4-(7-Hydroxyheptyloxy)-3-(5,6,7,8-tetrahydro-5,5,8,8-tetramethyl-2-naphthyl)phenyl]benzoic acid], the melting point fell in the range of 168 to 172 °C. `CC1(C)CCC(C)(C)c2cc(-c3cc(-c4ccc(C(=O)O)c(O)c4)ccc3-c3ccccc3)ccc21` [Example 46, 3″-Hydroxy-2′-(5,5,8,8-tetramethyl-5,6,7,8-tetrahydro-2-naphthyl)-[1,1′;4′,1″]terphenyl-4″-carboxylic acid] showed a melting point of 266 to 268 °C. `CC1(C)CCC(C)(C)c2cc(-c3cc(-c4ccc(C(=O)O)cc4)ccc3-c3ccccc3O)ccc21` [Example 22, 2-hydroxy-2′-(5,5,8,8-tetramethyl-5,6,7,8-tetrahydro-2-naphthyl)-[1,1′;4′,1″]terphenyl-4″-carboxylic acid] returned a melting point of 265 to 269 °C. In turn, `COc1c(-c2ccc(C(=O)O)cc2)cccc1-c1ccc2c(c1)C(C)(C)CCC2(C)C` showed a melting point of 205 °C. For `CC1(C)CCC(C)(C)c2cc(-c3ccc(-c4ccccc4)c(-c4ccc(C(=O)O)cc4)c3)ccc21` [Example 28, 4′-(5,5,8,8-Tetramethyl-5,6,7,8-tetrahydro-2-naphthyl)-[1,1′;2′,1″]terphenyl-4″-carboxylic acid], the melting point fell in the range of 258 to 262 °C.

In the case of `CC1(C)CCC(C)(C)c2cc(-c3cc(-c4ccc(C(=O)O)cc4)ccc3OCCCCCCO)ccc21` [Example 3, 4-[4-(6-Hydroxyhexyloxy)-3-(5,6,7,8-tetrahydro-5,5,8,8-tetramethyl-2-naphthyl)phenyl]benzoic acid], the melting point lay within 200 to 201 °C. Next, `CC1(C)CCC(C)(C)c2cc(-c3cc(CO)cc(-c4ccc(C(=O)O)cc4)c3)ccc21`: 213 °C; `Cc1cc2c(cc1-c1cc(-c3ccc(C(=O)O)cc3)ccc1-c1ccccc1)C(C)(C)CCC2(C)C` [Example 36, 2′-(3,5,5,8,8-Pentamethyl-5,6,7,8-tetrahydro-2-naphthyl)-[1,1′;4′,1″]terphenyl-4″-carboxylic acid]: 217 °C. Compound `COc1ccccc1-c1ccc(-c2ccc(C(=O)O)cc2)cc1-c1ccc2c(c1)C(C)(C)CCC2(C)C` [Example 23, 2-Methoxy-2′-(5,5,8,8-tetramethyl-5,6,7,8-tetrahydro-2-naphthyl)-[1,1′;4′,1″]terphenyl-4″-carboxylic acid] had a melting point of 239 to 243 °C. The compound `CC1(C)CCC(C)(C)c2cc(-c3cc(-c4ccc(C(=O)O)cc4)ccc3OCc3ccccc3)ccc21` [Example 9, 4-[4-Benzyloxy-3-(5,6,7,8-tetrahydro-5,5,8,8-tetramethyl-2-naphthyl)phenyl]benzoic acid] had a melting point of 241 to 244 °C. Next, `COc1cccc(-c2ccc(-c3ccc(C(=O)O)cc3)cc2-c2ccc3c(c2)C(C)(C)CCC3(C)C)c1` [Example 20, 3-Methoxy-2′-(5,5,8,8-tetramethyl-5,6,7,8-tetrahydro-2-naphthyl)-[1,1′;4′,1″]terphenyl-4″-carboxylic acid]: 258 to 259 °C; `CC1(C)CCC(C)(C)c2cc(-c3cc(-c4ccc(C(=O)O)cc4O)ccc3-c3ccccc3)ccc21` [Example 42, 2″-Hydroxy-2′-(5,5,8,8-tetramethyl-5,6,7,8-tetrahydro-2-naphthyl)-[1,1′;4′,1″]terphenyl-4″-carboxylic acid]: 282 to 284 °C; `COCOc1c(-c2ccc(C(=O)O)cc2)cccc1-c1ccc2c(c1)C(C)(C)CCC2(C)C`: 176 °C. Turning to `CC1(C)CCC(C)(C)c2cc(-c3cc(-c4ccc(C(=O)O)cc4)ccc3OCCN3CCOCC3)ccc21` [Example 12, 4′-(2-Morpholin-4-ylethoxy)-3′-(5,5,8,8-tetramethyl-5,6,7,8-tetrahydro-2-naphthyl)biphenyl-4-carboxylic acid], the melting point was 270 to 272 °C. In turn, `CC1(C)CCC(C)(C)c2cc(-c3cc(-c4ccc(C(=O)O)cc4)ccc3OCC(O)CO)ccc21` (racemic) [Example 10, 4′-(2,3-Dihydroxypropoxy)-3′-(5,5,8,8-tetramethyl-5,6,7,8-tetrahydro-2-naphthyl)biphenyl-4-carboxylic acid] came in with a melting point of 258 °C.

Compound `CCCOc1cc2c(cc1-c1cc(-c3ccc(C(=O)O)cc3)ccc1-c1ccccc1)C(C)(C)CCC2(C)C` [Example 40, 2′-(3-Propyloxy-5,5,8,8-tetramethyl-5,6,7,8-tetrahydro-2-naphthyl)-[1,1′;4′,1″]terphenyl-4″-carboxylic acid] displayed a melting point of 234 °C. Next, `COCOc1ccccc1-c1ccc(-c2ccc(C(=O)O)cc2)cc1-c1ccc2c(c1)C(C)(C)CCC2(C)C` [Example 21, 2-Methoxymethoxy-2′-(5,5,8,8-tetramethyl-5,6,7,8-tetrahydro-2-naphthyl)-[1,1′;4′,1″]terphenyl-4″-carboxylic acid]: 218 to 221 °C; `COCOc1cc(C(=O)O)ccc1-c1ccc(-c2ccccc2)c(-c2ccc3c(c2)C(C)(C)CCC3(C)C)c1` [Example 43, 2″-Methoxymethoxy-2′-(5,5,8,8-tetramethyl-5,6,7,8-tetrahydro-2-naphthyl)-[1,1′;4′,1″]terphenyl-4″-carboxylic acid]: 204 to 206 °C. Next, `CC1(C)CCSc2cc(-c3cc(-c4ccc(C(=O)O)cc4)ccc3-c3ccccc3)ccc21`: 261 °C; `CC1(C)CCC(C)(C)c2cc(-c3cc(-c4ccc(C(=O)O)cc4)ccc3OCCCCCCCCO)ccc21` [Example 5, 4-[4-(8-Hydroxyoctyloxy)-3-(5,6,7,8-tetrahydro-5,5,8,8-tetramethyl-2-naphthyl)phenyl]benzoic acid]: 155 to 160 °C.

As to `CC1(C)CCC(C)(C)c2cc(-c3cc(-c4ccc(C(=O)O)cc4)ccc3-c3ccccc3)c(O)cc21`, the melting point came to 273 °C. As for `COCOc1cccc(-c2ccc(-c3ccc(C(=O)O)cc3)cc2-c2ccc3c(c2)C(C)(C)CCC3(C)C)c1` [Example 18, 3-Methoxymethoxy-2′-(5,5,8,8-tetramethyl-5,6,7,8-tetrahydro-2-naphthyl)-[1,1′;4′,1″]terphenyl-4″-carboxylic acid], the figure is 212 °C. `CC1(C)CCC(C)(C)c2cc(-c3cc(-c4ccc(C(=O)O)cc4)ccc3OCCCCCC(=O)O)ccc21` [Example 56, 4′-(5-Carboxypentyloxy)-3′-(5,5,8,8-tetramethyl-5,6,7,8-tetrahydro-2-naphthyl)biphenyl-4-carboxylic acid]: the melting point came to 245 °C. Next, `CC1(C)CCC(C)(C)c2cc(C3C=C(c4ccccc4)C=CC3(OCC(=O)O)C(=O)O)ccc21` (stereo not shown) [Example 54, 4′-Carboxymethoxy-3′-(5,5,8,8-tetramethyl-5,6,7,8-tetrahydro-2-naphthyl)biphenyl-4′-carboxylic acid]: 279 to 281 °C; `COCOCc1cc(-c2ccc(C(=O)O)cc2)cc(-c2ccc3c(c2)C(C)(C)CCC3(C)C)c1`: 165 °C. Turning to `COCOc1ccc(-c2ccc3c(c2)C(C)(C)CCC3(C)C)cc1-c1ccc(C(=O)O)cc1`, the melting point fell in the range of 183 to 185 °C. As for `CC1(C)CCC(C)(C)c2cc(-c3cc(-c4ccc(C(=O)O)cc4)ccc3-c3ccccc3)ccc21` [Example 14, 2′-(5,5,8,8-Tetramethyl-5,6,7,8-tetrahydro-2-naphthyl)-[1,1′;4′,1″]terphenyl-4″-carboxylic acid], the figure is 287 to 288 °C. Next, `CC1(C)CCC(C)(C)c2cc(-c3cc(-c4ccc(C(=O)O)cc4)ccc3OCCCCCCCCCO)ccc21` [Example 6, 4-[4-(9-Hydroxynonyloxy)-3-(5,6,7,8-tetrahydro-5,5,8,8-tetramethyl-2-naphthyl)phenyl]benzoic acid]: 147 to 150 °C; `CC1(C)CCC(C)(C)c2cc(-c3cc(-c4ccc(C(=O)O)nc4)ccc3-c3ccccc3)ccc21` [Example 48, 5-[2-(5,5,8,8-Tetramethyl-5,6,7,8-tetrahydro-2-naphthyl)biphenyl-4-yl]-2-pyridinecarboxylic acid]: 222 to 224 °C. With `CC1(C)CCC(C)(C)c2cc(-c3cc(-c4ccc(C(=O)O)cc4)ccc3C(=O)O)ccc21`, the melting point was 343 °C.
